The values below come from patent US7459477B2, “Substituted N-phenyl-phenoxy nicotinic acid-(thio)amides and their use as herbicides” (Nihon Nohyaku, Co., Ltd., priority 2001, dated 2008).

Holding throughout (assay type): in vivo
The subject of series [1] is powdery mildew fungus (Erysiphe graminis hordei). As to the kind of experiment: Controlling effect on barley powdery mildew (Test Example 5). As to conditions: 200 ppm; potted barley at 1 leaf stage sprayed one day after inoculation; one week after the inoculation; 25° C. How it is done: Controlling Effect on Barley Powdery Mildew Potted barley plants at the 1 leaf stage were inoculated with spores of powdery mildew fungus (Erysiphe graminis hordei) by sprinkling. After one day, they were sprayed with a liquid chemical prepared by diluting a preparation containing each compound listed in Table 1, Table 3 or Table 4 as an active ingredient to adjust the concentration to 200 ppm. Then, they were allowed to stand in a room thermostated at 25° C. One week after the inoculation, the lesion area of each leaf was measured and then compared with that on the untreated plot, whereby the controlling effect was judged according to the following criterion. Criterion for Judgment: • A: control efficacy 100 to 95% • B: control efficacy 94 to 80% • C: control efficacy 79 to 60% • D: control efficacy 59 to 0%

Series [2] relates to Two-Spotted Spider Mite (Tetranychus Urticae). As to the kind of experiment: Acaricidal effect on two-spotted spider mite (Test Example 3). The settings on record: 500 ppm; kidney bean leaf disc with female adults sprayed; two days after the treatment; 25° C. The protocol:
Acaricidal Effect on Two-Spotted Spider Mite (Tetranychus Urticae)
A leaf disc with a diameter of 2 cm was made of a kidney bean leaf, placed on wet filter paper, inoculated with female adult two-spotted spider mites, and then uniformly sprayed, on a turntable, with 50 ml of a liquid chemical prepared by diluting a preparation containing each compound listed in Tables 1 to 4 as an active ingredient to adjust the concentration to 500 ppm. After the spraying, the leaf disc was allowed to stand in a room thermostated at 25° C. Two days after the treatment with the preparation, the dead insects were counted and the acaricidal effect was judged according to the criterion shown in Test Example 1. The test was carried out with two replications of 10 insects.

The test system of series [3] is Smaller Tea Tortrix (Adxophyes sp.). As to the kind of experiment: Insecticidal effect on smaller tea tortrix (Test Example 2). As to conditions: 500 ppm; tea leaves immersed about 30 seconds, inoculated with larvae; eight days after the inoculation; 25° C., humidity 70%. The protocol: Insecticidal Effect on Smaller Tea Tortrix (Adxophyes sp.)
Tea leaves were immersed for about 30 seconds in a liquid chemical prepared by diluting a preparation containing each compound listed in Tables 1 to 4 as an active ingredient to adjust the concentration to 500 ppm. After air-dryness, the tea leaves were placed in a plastic Petri dish with a diameter of 9 cm and inoculated with larvae of smaller tea tortrix, after which the dish was allowed to stand in a room thermostatted at 25° C. and having a humidity of 70%. Eight days after the inoculation, the dead and alive were counted. The mortality was calculated according to the following equation and the insecticidal effect was judged according to the criterion shown in Test Example 1. The test was carried out with triplicate groups of 10 insects.

Series [4] deals with Green Peach Aphid (Myzus Persicae). Description: Insecticidal effect on green peach aphid (Test Example 4). As to conditions: 500 ppm; stems and leaves of Chinese cabbage sprayed; six days after the spraying; greenhouse. An excerpt:
Insecticidal Effect on Green Peach Aphid (Myzus Persicae)
A Chinese cabbage plant was planted in each of plastic pots with a diameter of 8 cm and a height of 8 cm, and green peach aphids were propagated on the plant. Then, the stems and leaves were sufficiently sprayed with a liquid chemical prepared by diluting a preparation containing each compound listed in Tables 1 to 4 as an active ingredient to adjust the concentration to 500 ppm. After air-drying, the pots were allowed to stand in a greenhouse. Six days after the spraying, green peach aphids parasitic on each Chinese cabbage plant were counted and the control efficacy was calculated, whereby the […] effect was judged according to the criterion shown below. Control efficacy (%)=100−[(T×Ca)/(Ta×C)]×100 • Ta: number of parasites before spraying in treated group, • T: number of parasites after spraying in treated group,
Ca: number of parasites before spraying in untreated group, • […]: number of parasites after spraying in untreated group. Criterion for Judgment: • A: control efficacy 100% • B: control efficacy 99 to 90% • C: control efficacy 89 to 80% • D: control efficacy 79 to 50%

For series [5], the system named is Diamond Back Moth (Plutella xylostella). As to the kind of experiment: Insecticidal effect on diamond back moth (Test Example 1). The settings on record: 500 ppm; Chinese cabbage seedling with eggs immersed about 30 seconds; six days after the immersion; 25° C. From the text:
Insecticidal Effect on Diamond Back Moth (Plutella xylostella)
Adult diamond back moths were released and allowed to oviposit on a Chinese cabbage seedling. Two days after the release, the seedling having the eggs deposited thereon was immersed for about 30 seconds in a liquid chemical prepared by diluting a preparation containing each compound listed in Tables 1 to 4 as an active ingredient to adjust the concentration to 500 ppm. After air-dryness, it was allowed to stand in a room thermostatted at 25° C. Six days after the immersion, the hatched insects were counted. The mortality was calculated according to the following equation and the insecticidal effect was judged according to the criterion shown below. The test was carried out with triplicate groups of 10 insects.

Regarding `CC(C)c1cc(C(F)(C(F)(F)F)C(F)(F)F)ccc1NC(=O)c1cn(C)nc1C(F)(F)F` [1-5], in series [1], the “controlling effect (control efficacy rating, lesion area)” value (“controlling effect” for short) is “B or higher”.
On the same count and under the same terms, under `Cn1cc(C(=O)Nc2ccc(C(F)(C(F)(F)F)C(F)(F)F)c3c2CCCC3)c(C(F)(F)F)n1` [1-12] stands “B or higher”.
With `CCCC(C)c1cc(C(OC)(C(F)(F)F)C(F)(F)F)ccc1NC(=O)c1c(C)nn(C)c1Cl` (stereo not drawn) [1-23], the “acaricidal effect (mortality rating)” value in series [2] is “B or higher”. Moreover, the “controlling effect” value in series [1] is recorded as “B or higher”.
Regarding `CC(C)CC(C)c1cc(C(C(F)(F)F)C(F)(F)F)ccc1NC(=O)c1cn(C)nc1C(F)(F)F` (stereo not drawn) [1-30], in series [1], the “controlling effect” value is reported as “B or higher”.
As for `Cc1c(C(=O)Nc2ccc(C(C(F)(F)F)C(F)(F)F)cc2C(C)CC(C)C)cnn1C` (stereo not drawn) [1-45], the “controlling effect” value in series [1] is recorded as “B or higher”.
As to `CC(C)CC(C)c1cc(C(C(F)(F)F)C(F)(F)F)ccc1NC(=O)c1cnn(C)c1[S+](C)[O-]` (stereo not drawn) [1-47], the “controlling effect” value in series [1] is listed as “B or higher”.
In the case of `CC(C)CC(C)c1cc(C(C(F)(F)F)C(F)(F)F)ccc1NC(=O)c1cnn(CCF)c1Cl` (stereo not drawn) [1-52], the “acaricidal effect (mortality rating)” value in series [2] is “B or higher”. Also, the “insecticidal effect (mortality rating)” value in series [3] and in series [5] was “B or higher” each time. Further, in series [4], the control efficacy rating result is on record as “B or higher”. Further, in series [1], the “controlling effect” value is given as “B or higher”.
In the case of `CCn1ncc(C(=O)Nc2ccc(C(C(F)(F)F)C(F)(F)F)cc2C(C)CC(C)C)c1Br` (stereo not drawn) [1-54], the “acaricidal effect (mortality rating)” value in series [2] was “B or higher”. For the same compound, in series [1], the “controlling effect” value is recorded as “B or higher”.
In the case of `Cc1c(C(=O)Nc2ccc(C(C(F)(F)F)C(F)(F)F)cc2C(C)CC(C)C)c(Cl)nn1C` (stereo not drawn) [1-60], in series [3], the “insecticidal effect (mortality rating)” value is on record as “B or higher”.
Consider `Cc1nn(C)c(F)c1C(=O)Nc1ccc(C(C(F)(F)F)C(F)(F)F)cc1C(C)CC(C)C` (stereo not drawn) [1-65], for which, in series [2], the “acaricidal effect (mortality rating)” value is “B or higher”. The control efficacy rating result in series [4] is “B or higher”. Also, the “insecticidal effect (mortality rating)” value in series [5] is given as “B or higher”.
With `CCn1nc(C)c(C(=O)Nc2ccc(C(O)(C(F)(F)F)C(F)(F)F)cc2C(C)CC(C)C)c1Br` (stereo not drawn) [1-83], the “controlling effect” value in series [1] was “B or higher”.
As for `CCCc1nn(C)c(Cl)c1C(=O)Nc1ccc(C(C(F)(F)F)C(F)(F)F)cc1C(C)CC(C)C` (stereo not drawn) [1-133], the “insecticidal effect (mortality rating)” value in series [5] was “B or higher”. The “controlling effect” value in series [1] is given as “B or higher”.
As to `CC(C)CC(C)c1cc(C(C(F)(F)F)C(F)(F)F)ccc1NC(=O)c1snnc1C(F)(F)F` (stereo not drawn) [3-12], the “insecticidal effect (mortality rating)” value in series [3] and in series [5] was “B or higher” each time.
With `CC(C)CC(C)c1cc(C(C(F)(F)F)C(F)(F)F)ccc1NC(=O)c1sccc1Cl` (stereo not drawn) [3-28], the “insecticidal effect (mortality rating)” value in series [3] is given as “B or higher”.
Turning to `CC(C)CC(C)c1cc(C(C(F)(F)F)C(F)(F)F)ccc1NC(=O)c1sccc1I` (stereo not drawn) [3-30], the “insecticidal effect (mortality rating)” value in series [3] is “B or higher”. For the same compound, in series [1], the “controlling effect” value is recorded as “B or higher”.
For `COC(c1ccc(NC(=O)c2sccc2I)c(C(C)CC(C)C)c1)(C(F)(F)F)C(F)(F)F` (stereo not drawn) [3-31], the “insecticidal effect (mortality rating)” value in series [3] is on record as “B or higher”. For the same compound, in series [1], the “controlling effect” value is reported as “B or higher”.
For `Cc1cc(C(=O)Nc2ccc(C(C(F)(F)F)C(F)(F)F)cc2C(C)CC(C)C)n(C)n1` (stereo not drawn) [4-3], the “acaricidal effect (mortality rating)” value in series [2] is “B or higher”. Moreover, the “controlling effect” value in series [1] is recorded as “B or higher”.
`CC(C)CC(C)c1cc(C(C(F)(F)F)C(F)(F)F)ccc1NC(=O)c1c(C(F)(F)F)nn(C)c1Cl` (stereo not drawn) [Compound No. 1-103, N-{2-(1,3-dimethylbutyl)-4-[2,2,2-trifluoro-1-(trifluoromethyl)ethyl]phenyl}-5-chloro-1-methyl-3-trifluoromethylpyrazole-4-carboxamide]: the “acaricidal effect (mortality rating)” value in series [2] is recorded as “B or higher”. Moreover, the “insecticidal effect (mortality rating)” value in series [3] and in series [5] was “B or higher” each time.
Consider `Cc1nn(C)c(Cl)c1C(=O)Nc1ccc(C(C(F)(F)F)C(F)(F)F)cc1C(C)CCC(C)C` (stereo not drawn) [Compound No. 1-146, N-{2-(1,4-dimethylpentyl)-4-[2,2,2-trifluoro-1-(trifluoromethyl)ethyl]phenyl}-5-chloro-1,3-dimethylpyrazole-4-carboxamide], for which the “acaricidal effect (mortality rating)” value in series [2] is reported as “B or higher”. The control efficacy rating entry in series [4] was “B or higher”. In addition, in series [5], the “insecticidal effect (mortality rating)” value was “B or higher”.
